Measurements as given in patent publication EP0308783A2, “Antimycotic preparations” (BAYER AG, priority 1987, dated 1989).
≈ marks a conversion by molar mass, not a printed value.

How the values were obtained:
Assay in all cases: antimycotic in-vitro activity, serial dilution test
Type in all cases: cell-based
Candida albicans = settings: Fleischextrakt-Traubenzucker-Bouillon, 28°C to 37 C, 24 to 96 hours, inoculum 5 x 10^3 to 10^4 germs/ml, read-out: MHK-Werte in µg/ml Närmedium Candida albicans
Description: (§1) Die in-vitro-Prüfungen wurden im Reihenverdünnungstest mit Keiminokula von durchschnittlich 5 x 10^3 bis 10^4 Keimen/mi Substrat durchgeführt. Als Nährmedium dienten • a) für Dermatophyten und Schimmelpilze: Sabouraud's milieu d'epreuve • b) für Hefen: Fleischextrakt-Traubenzucker-Bouillon.
(§2) Die Bebrütungstemperatur betrug 28°C bis 37 C, die Bebrütungsdauer lag bei 24 bis 96 Stunden bei Hefen und 96 Stunden bei Dermatophyten und Schimmelpilzen.

Aspergillus fumigatus = settings: Sabouraud's milieu d'epreuve, 28°C to 37 C, 96 hours, inoculum 5 x 10^3 to 10^4 germs/ml, read-out: MHK-Werte in µg/ml Närmedium Aspergillus fumigatus
Description: as §1, §2

Trichophyton mentagr. = settings: Sabouraud's milieu d'epreuve, 28°C to 37 C, 96 hours, inoculum 5 x 10^3 to 10^4 germs/ml, read-out: MHK-Werte in µg/ml Närmedium Trichophyton mentagr.
Description: as §1, §2

Torulopsis glabrata = settings: Nakaseomyces glabratus; Fleischextrakt-Traubenzucker-Bouillon; 28°C to 37 C; 24 to 96 hours; inoculum 5 x 10^3 to 10^4 germs/ml; read-out: MHK-Werte in µg/ml Närmedium Torulopsis glabrata
Description: as §1, §2

Microsporum canis = settings: Sabouraud's milieu d'epreuve, 28°C to 37 C, 96 hours, inoculum 5 x 10^3 to 10^4 germs/ml, read-out: MHK-Werte in µg/ml Närmedium Microsporum canis
Description: as §1, §2

SMILES	MIC (Candida albicans)	MIC (Aspergillus fumigatus)	MIC (Trichophyton mentagr.)	MIC (Torulopsis glabrata)	MIC (Microsporum canis)
OC(Cn1cncn1)(c1ccc(Cl)cc1)C1(F)CC1 (stereo not drawn) [(A), 1-(4-Chlorphenyl)-1-(1-fluor-cycloprop-1-yl)-2-(1,2,4-triazol-1-yl)-ethan-1-ol]	> 64 µg/mL	> 64 µg/mL	> 64 µg/mL		
OC(Cn1cncn1)(c1ccc(Cl)cc1)C1(Oc2ccc(Cl)cc2Cl)CC1 (stereo not drawn) [(B), 1-(4-Chlorphenyl)-1-[1-(2,4-dichiorphenoxy)-cycloprop-1-yl]-2-(1,2,4-triazol-1-yl)-ethan-1-ol]	16 µg/mL (≈ 37.7 µM)	> 64 µg/mL	64 µg/mL (≈ 151 µM)	64 µg/mL (≈ 151 µM)	
OC(COc1ccc(Cl)cc1)(Cn1cncn1)C1(Cl)CC1 (stereo not drawn) [Beispiel 1, 2-(1-Chlorcyclopropyl)-1-(4-chlorphenoxy)-3-(1,2,4-triazol-1-yl)-propan-2-ol]	16 µg/mL (≈ 48.8 µM)	2 µg/mL (≈ 6.09 µM)	< 1 µg/mL	16 µg/mL (≈ 48.8 µM)	< 1 µg/mL
